Data published in ChEMBL document CHEMBL3991601, “The target landscape of clinical kinase drugs” (Science, 2017).
pKd: −log10 of the molar value. The source made the active and inactive calls. For most assays here, no stated cut-off is given here; in the data, actives have a measured Kd and inactives only a lower limit.

Columns and labels:
[1] = biological target: T1, Acyl-CoA dehydrogenase family member 10 (Homo sapiens, UniProt Q6JQN1)
T1 sequence (Q6JQN1 whole entry): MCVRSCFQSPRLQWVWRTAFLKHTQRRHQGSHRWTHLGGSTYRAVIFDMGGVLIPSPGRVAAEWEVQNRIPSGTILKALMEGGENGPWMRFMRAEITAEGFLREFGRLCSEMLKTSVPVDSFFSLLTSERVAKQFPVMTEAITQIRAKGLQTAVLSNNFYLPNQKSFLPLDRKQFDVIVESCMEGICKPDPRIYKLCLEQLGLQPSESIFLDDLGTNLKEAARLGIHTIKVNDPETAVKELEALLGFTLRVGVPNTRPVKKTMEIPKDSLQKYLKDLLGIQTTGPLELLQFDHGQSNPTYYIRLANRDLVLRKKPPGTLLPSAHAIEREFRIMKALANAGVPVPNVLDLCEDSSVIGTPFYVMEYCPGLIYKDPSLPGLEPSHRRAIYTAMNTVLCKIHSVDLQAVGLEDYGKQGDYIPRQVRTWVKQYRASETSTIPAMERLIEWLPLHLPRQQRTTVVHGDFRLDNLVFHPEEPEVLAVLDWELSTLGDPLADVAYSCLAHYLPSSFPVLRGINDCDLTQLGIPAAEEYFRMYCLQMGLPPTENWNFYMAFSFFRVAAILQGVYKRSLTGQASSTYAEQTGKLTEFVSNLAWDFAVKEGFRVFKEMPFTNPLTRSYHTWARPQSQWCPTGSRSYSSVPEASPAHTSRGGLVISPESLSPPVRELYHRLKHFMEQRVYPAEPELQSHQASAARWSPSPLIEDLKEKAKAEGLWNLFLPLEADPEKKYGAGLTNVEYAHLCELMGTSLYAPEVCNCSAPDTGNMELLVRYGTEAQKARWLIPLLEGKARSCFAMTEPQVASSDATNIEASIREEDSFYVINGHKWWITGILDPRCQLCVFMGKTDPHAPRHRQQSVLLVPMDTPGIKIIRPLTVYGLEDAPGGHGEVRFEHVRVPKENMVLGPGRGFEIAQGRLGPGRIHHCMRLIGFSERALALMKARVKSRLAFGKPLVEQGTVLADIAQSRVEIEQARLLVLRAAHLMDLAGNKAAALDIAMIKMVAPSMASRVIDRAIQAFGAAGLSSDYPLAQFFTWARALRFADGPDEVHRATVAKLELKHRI

[2] = biological target: Cyclin-dependent kinase 5 (Homo sapiens, UniProt Q00535)
[3] = biological target: Cyclin-dependent kinase 7 (Homo sapiens, UniProt P50613)
[4] = biological target: T2, Probable ATP-dependent RNA helicase DDX6 (Homo sapiens, UniProt P26196)
T2 sequence (P26196 whole entry): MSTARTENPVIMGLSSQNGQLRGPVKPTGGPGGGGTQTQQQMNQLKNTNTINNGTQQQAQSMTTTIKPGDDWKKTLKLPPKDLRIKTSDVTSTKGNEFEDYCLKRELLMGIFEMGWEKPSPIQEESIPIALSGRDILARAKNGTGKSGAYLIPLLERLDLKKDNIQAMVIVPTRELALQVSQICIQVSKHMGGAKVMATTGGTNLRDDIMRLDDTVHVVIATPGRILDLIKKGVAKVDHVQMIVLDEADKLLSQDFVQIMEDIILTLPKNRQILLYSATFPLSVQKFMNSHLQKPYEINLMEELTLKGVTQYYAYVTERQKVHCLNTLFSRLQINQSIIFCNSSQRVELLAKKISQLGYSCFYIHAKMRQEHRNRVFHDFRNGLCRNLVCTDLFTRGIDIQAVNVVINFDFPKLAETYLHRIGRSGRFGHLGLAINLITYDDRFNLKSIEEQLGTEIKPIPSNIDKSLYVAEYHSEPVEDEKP

[5] = biological target: S-adenosylmethionine synthase isoform type-2 (Homo sapiens, UniProt P31153)
[6] = biological target: Proto-oncogene tyrosine-protein kinase receptor Ret (Homo sapiens, UniProt P07949)
[7] = biological target: T3, Serine/threonine-protein kinase TAO1 (Homo sapiens, UniProt Q7L7X3)
T3 sequence (Q7L7X3 whole entry): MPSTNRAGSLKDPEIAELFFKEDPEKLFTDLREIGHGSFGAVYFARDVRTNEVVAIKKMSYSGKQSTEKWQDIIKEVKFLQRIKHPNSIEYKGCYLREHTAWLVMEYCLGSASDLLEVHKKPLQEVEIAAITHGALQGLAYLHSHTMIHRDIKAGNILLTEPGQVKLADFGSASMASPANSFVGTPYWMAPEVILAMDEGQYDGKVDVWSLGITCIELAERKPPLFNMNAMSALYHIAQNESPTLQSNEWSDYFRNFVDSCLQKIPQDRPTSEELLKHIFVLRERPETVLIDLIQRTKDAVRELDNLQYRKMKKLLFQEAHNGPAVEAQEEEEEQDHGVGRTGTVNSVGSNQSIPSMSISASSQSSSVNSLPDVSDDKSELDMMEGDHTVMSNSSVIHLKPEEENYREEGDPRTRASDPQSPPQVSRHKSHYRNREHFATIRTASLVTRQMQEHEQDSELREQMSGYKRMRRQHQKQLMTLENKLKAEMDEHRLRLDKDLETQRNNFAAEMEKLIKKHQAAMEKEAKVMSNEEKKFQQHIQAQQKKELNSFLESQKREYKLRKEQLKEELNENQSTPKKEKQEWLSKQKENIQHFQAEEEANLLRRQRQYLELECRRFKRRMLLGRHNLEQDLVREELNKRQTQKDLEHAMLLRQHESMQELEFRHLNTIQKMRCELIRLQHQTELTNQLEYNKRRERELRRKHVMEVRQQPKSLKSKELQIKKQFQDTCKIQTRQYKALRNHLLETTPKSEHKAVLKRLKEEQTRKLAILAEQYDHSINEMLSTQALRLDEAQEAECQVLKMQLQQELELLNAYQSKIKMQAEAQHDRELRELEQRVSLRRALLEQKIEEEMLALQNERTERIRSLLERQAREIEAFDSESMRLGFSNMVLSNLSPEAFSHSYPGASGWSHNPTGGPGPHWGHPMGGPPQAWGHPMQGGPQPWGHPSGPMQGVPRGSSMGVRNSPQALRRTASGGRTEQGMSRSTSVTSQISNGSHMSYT

Cyclin-dependent kinase 5, sequence (Q00535 whole entry): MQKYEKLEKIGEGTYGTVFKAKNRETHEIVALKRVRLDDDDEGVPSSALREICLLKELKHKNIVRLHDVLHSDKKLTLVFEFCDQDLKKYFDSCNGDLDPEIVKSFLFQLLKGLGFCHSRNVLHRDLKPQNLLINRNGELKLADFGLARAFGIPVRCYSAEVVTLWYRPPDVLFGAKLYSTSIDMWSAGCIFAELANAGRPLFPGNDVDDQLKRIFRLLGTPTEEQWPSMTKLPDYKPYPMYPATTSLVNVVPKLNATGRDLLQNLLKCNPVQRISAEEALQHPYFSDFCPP
S-adenosylmethionine synthase isoform type-2, sequence (P31153 whole entry, canonical isoform): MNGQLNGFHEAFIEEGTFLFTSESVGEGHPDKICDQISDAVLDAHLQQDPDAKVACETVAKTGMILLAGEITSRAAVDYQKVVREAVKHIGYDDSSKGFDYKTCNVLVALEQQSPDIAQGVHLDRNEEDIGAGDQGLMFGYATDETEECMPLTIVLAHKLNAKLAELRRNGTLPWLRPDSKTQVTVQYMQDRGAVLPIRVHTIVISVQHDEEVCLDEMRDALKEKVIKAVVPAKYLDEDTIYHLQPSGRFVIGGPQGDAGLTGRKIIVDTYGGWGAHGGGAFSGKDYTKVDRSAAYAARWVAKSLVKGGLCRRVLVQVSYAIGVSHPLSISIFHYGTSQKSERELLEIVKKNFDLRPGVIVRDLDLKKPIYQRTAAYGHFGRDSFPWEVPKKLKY
Proto-oncogene tyrosine-protein kinase receptor Ret, sequence (P07949 whole entry): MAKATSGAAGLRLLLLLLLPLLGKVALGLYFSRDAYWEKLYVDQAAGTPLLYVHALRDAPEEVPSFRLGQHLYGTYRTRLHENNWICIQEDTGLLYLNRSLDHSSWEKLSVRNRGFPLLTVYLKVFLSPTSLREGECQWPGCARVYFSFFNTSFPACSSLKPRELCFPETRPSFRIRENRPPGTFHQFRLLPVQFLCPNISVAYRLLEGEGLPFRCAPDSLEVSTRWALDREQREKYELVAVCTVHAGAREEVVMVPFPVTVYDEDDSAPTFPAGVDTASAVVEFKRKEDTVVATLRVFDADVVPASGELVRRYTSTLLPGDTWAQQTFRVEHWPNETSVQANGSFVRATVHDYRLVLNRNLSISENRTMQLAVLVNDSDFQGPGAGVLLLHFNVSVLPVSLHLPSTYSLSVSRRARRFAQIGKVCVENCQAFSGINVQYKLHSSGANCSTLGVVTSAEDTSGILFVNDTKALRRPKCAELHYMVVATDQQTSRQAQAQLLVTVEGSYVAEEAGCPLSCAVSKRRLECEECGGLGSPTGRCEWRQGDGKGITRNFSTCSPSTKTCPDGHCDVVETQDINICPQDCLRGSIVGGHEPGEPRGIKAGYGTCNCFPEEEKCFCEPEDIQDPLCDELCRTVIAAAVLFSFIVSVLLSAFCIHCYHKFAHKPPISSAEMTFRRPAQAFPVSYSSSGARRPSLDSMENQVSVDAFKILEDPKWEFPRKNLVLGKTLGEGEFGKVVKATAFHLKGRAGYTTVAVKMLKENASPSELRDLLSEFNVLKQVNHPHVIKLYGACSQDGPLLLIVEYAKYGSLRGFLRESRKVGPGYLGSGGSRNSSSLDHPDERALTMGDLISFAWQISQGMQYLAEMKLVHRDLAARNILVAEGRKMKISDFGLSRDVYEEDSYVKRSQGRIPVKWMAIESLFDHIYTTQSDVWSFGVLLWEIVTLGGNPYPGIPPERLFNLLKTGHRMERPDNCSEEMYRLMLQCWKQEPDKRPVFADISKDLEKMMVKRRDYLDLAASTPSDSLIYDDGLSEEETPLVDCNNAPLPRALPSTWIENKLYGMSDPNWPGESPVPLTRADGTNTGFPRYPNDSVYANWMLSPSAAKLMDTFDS
Cyclin-dependent kinase 7, sequence (P50613 whole entry): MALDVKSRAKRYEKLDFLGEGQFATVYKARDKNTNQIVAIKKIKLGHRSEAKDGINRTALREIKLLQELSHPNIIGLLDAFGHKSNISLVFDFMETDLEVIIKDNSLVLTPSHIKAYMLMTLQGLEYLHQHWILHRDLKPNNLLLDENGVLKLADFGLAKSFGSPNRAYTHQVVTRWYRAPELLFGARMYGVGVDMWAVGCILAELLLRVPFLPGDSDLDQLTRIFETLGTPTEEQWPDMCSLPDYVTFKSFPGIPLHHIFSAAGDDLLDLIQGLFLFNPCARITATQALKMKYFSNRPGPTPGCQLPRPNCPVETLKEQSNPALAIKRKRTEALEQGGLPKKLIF

Structure (SMILES) | Kd [1] | Kd [2] | Kd [3] | Kd [4] | Kd [5] | Kd [6] | Kd [7] | pKd [6]
Cc1nc2cc(-c3nn(C(C)C)c4ncnc(N)c34)ccc2o1 | > 30 µM (inactive) | > 30 µM (inactive) | > 30 µM (inactive) | > 30 µM (inactive) | > 30 µM (inactive) | 1.6 µM (active) | 1.09 µM (active) | 
O=C1NC(=O)[C@@H](c2cn3c4c(cccc24)CCC3)[C@@H]1c1c[nH]c2ccccc12 [TIVANTINIB] | > 30 µM (inactive) | > 30 µM (inactive) | > 30 µM (inactive) | > 30 µM (inactive) | > 30 µM (inactive) | > 30 µM (inactive) | > 30 µM (inactive) | 
COCC(=O)NC/C=C/c1ccc2ncnc(Nc3ccc(Oc4ccc(C)nc4)c(C)c3)c2c1 [CP-724714] | > 30 µM (inactive) | > 30 µM (inactive) | > 30 µM (inactive) | > 30 µM (inactive) | > 30 µM (inactive) | > 30 µM (inactive) | > 30 µM (inactive) | 
Cc1nc(NC(=O)N2CCC[C@H]2C(N)=O)sc1-c1ccnc(C(C)(C)C(F)(F)F)c1 [ALPELISIB] | > 30 µM (inactive) | > 30 µM (inactive) | > 30 µM (inactive) | > 30 µM (inactive) | > 30 µM (inactive) | > 30 µM (inactive) | > 30 µM (inactive) | 
CCCCCCCCCCCCCCCCCCOP(=O)([O-])OC1CC[N+](C)(C)CC1 [PERIFOSINE] | > 30 µM (inactive) | > 30 µM (inactive) | > 30 µM (inactive) | > 30 µM (inactive) | > 30 µM (inactive) | > 30 µM (inactive) | > 30 µM (inactive) | 
C[C@H]1CNCCCN1S(=O)(=O)c1cccc2cncc(F)c12 | > 30 µM (inactive) | > 30 µM (inactive) | > 30 µM (inactive) | > 30 µM (inactive) | > 30 µM (inactive) | > 30 µM (inactive) | > 30 µM (inactive) | 
Cc1cnc(NC(=O)Nc2cc(Br)c(C)cc2OC[C@@H]2CNCCO2)cn1 [RABUSERTIB] | > 30 µM (inactive) | > 30 µM (inactive) | > 30 µM (inactive) | > 30 µM (inactive) | > 30 µM (inactive) | > 30 µM (inactive) | > 30 µM (inactive) | 
C[C@@H](Oc1cc(C(=O)Nc2ccc(C(=O)N3CCN(C)CC3)cc2)nnc1N)c1c(Cl)ccc(F)c1Cl | > 30 µM (inactive) | > 30 µM (inactive) | > 30 µM (inactive) | > 30 µM (inactive) | > 30 µM (inactive) | > 30 µM (inactive) | > 30 µM (inactive) | 
Cc1cccc(-c2nn3c(c2-c2ccnc4ccc(C(N)=O)cc24)CCC3)n1 [GALUNISERTIB] | > 30 µM (inactive) | > 30 µM (inactive) | > 30 µM (inactive) | > 30 µM (inactive) | > 30 µM (inactive) | > 30 µM (inactive) | > 30 µM (inactive) | 
O=C(Nc1nc2cccc(-c3ccc(CN4CCS(=O)(=O)CC4)cc3)n2n1)C1CC1 [FILGOTINIB] | > 30 µM (inactive) | > 30 µM (inactive) | > 30 µM (inactive) | > 30 µM (inactive) | > 30 µM (inactive) | > 30 µM (inactive) | > 30 µM (inactive) | 
Cc1nc(Nc2n[nH]c3c2CN(C(=O)N[C@H](CN(C)C)c2ccccc2)C3(C)C)c2sccc2n1 [PF-03758309] | > 30 µM (inactive) | > 30 µM (inactive) | 0.003 µM (active) | > 30 µM (inactive) | > 30 µM (inactive) | 0.728 µM (active) | > 30 µM (inactive) | 
COCc1c(-c2ccc(NC(=O)Nc3cc(C(F)(F)F)ccc3F)c(F)c2)c2c(N)ncnn2c1CN1CCOCC1 | > 30 µM (inactive) | > 30 µM (inactive) | > 30 µM (inactive) | > 30 µM (inactive) | > 30 µM (inactive) | 0.093 µM (active) | > 30 µM (inactive) | 
CN1CCN(CCOc2cc(OC3CCOCC3)c3c(Nc4c(Cl)ccc5c4OCO5)ncnc3c2)CC1 [SARACATINIB] | > 30 µM (inactive) | > 30 µM (inactive) | > 30 µM (inactive) | > 30 µM (inactive) | > 30 µM (inactive) |  | > 30 µM (inactive) | 6.75
C=CC(=O)N1CCC[C@H](n2c(=O)n(-c3ccc(Oc4ccccc4)cc3)c3c(N)ncnc32)C1 | > 30 µM (inactive) | > 30 µM (inactive) | > 30 µM (inactive) | > 30 µM (inactive) | > 30 µM (inactive) | > 30 µM (inactive) | > 30 µM (inactive) | 
COc1ccc(S(=O)(=O)N(C(C)=O)c2ccccc2/C=C/c2cc[n+]([O-])cc2)cc1 [HMN-214] | > 30 µM (inactive) | > 30 µM (inactive) | > 30 µM (inactive) | > 30 µM (inactive) | > 30 µM (inactive) | > 30 µM (inactive) | > 30 µM (inactive) | 
COc1cc2c(Nc3ccc(Cl)c(Cl)c3F)ncnc2cc1OC[C@@H]1C[C@@H]2CN(C)C[C@@H]2C1 [TESEVATINIB] | > 30 µM (inactive) | > 30 µM (inactive) | > 30 µM (inactive) | > 30 µM (inactive) | > 30 µM (inactive) | 0.064 µM (active) | > 30 µM (inactive) | 
CO[C@H]1C[C@@H]2CC[C@@H](C)[C@@](O)(O2)C(=O)C(=O)N2CCCC[C@H]2C(=O)O[C@H]([C@H](C)C[C@@H]2CC[C@@H](OC(=O)C(C)(CO)CO)[C@H](OC)C2)CC(=O)[C@H](C)/C=C(\C)[C@@H](O)[C@@H](OC)C(=O)[C@H](C)C[C@H](C)/C=C/C=C/C=C/1C [TEMSIROLIMUS] | > 30 µM (inactive) | > 30 µM (inactive) | > 30 µM (inactive) | > 30 µM (inactive) | > 30 µM (inactive) | > 30 µM (inactive) | > 30 µM (inactive) | 
Cn1cnc2c(F)c(Nc3ccc(Br)cc3F)c(C(=O)NOCCO)cc21 [BINIMETINIB] | > 30 µM (inactive) | > 30 µM (inactive) | > 30 µM (inactive) | > 30 µM (inactive) | > 30 µM (inactive) | > 30 µM (inactive) | > 30 µM (inactive) | 
